≈ marks a conversion by molar mass, not a printed value. *1 amine or outer side, *2 acyl side, *3 side chain or, on linkers, in order; H or OH if unused. Where a SMILES comes first, the peptide text is derived from it. Bridges are numbered along the chain shown (N, C = ends). [ ]: non-standard residue; d: D form. The star is where a group is joined. C20 diacid = O=C(O)CCCCCCCCCCCCCCCCCCC(=O)*; γGlu = O=C(O)[C@H](CCC(=O)[*:2])N[*:1]; AEEA = NCCOCCOCC(=O)O

Data set [1] can be described thus: Agonist activity at human AMY3R (CT+RAMP3) expressed in Hollex1 cells incubated for 3 hrs by luminescence assay. It counts as cell-based. Particulars: Hollex1, 3 h.
Data set [2] in a line: Agonist activity at human calcitonin receptor expressed in BHK570 cells assessed as increase in intracellular cAMP concentration incubated for 3 hrs in absence of albumin by CRE luciferase reporter gene assay. The data set is classed as cell-based. Particulars: BHK570, 3 h.
The next data set is filed under the species Homo sapiens. Put plainly: Ratio of EC50 for human calcitonin receptor expressed in BHK570 cells to EC50 for human AMY3R (CT+RAMP3) expressed in Hollex1 cells. The data set is classed as cell-based.
Data set [3] in a line: Agonist activity at rat AMY3R (CT+RAMP3) expressed in tk-ts13 cells assessed as increase in intracellular cAMP level incuabted for 25 mins by CRE luciferase reporter gene assay. It counts as cell-based. Particulars: tk-ts13, 25 min.
Data set [4] in a line: Agonist activity at rat calcitonin receptor expressed in BHK-13 cells assessed as increase in intracellular cAMP concentration incubated for 25 mins by CRE luciferase reporter gene assay. Particulars: BHK-13, 25 min. It counts as cell-based.
The species entered for data set [5] is Rattus norvegicus. Put plainly: Ratio of EC50 for rat calcitonin receptor expressed in BHK-13 cells to EC50 for rat AMY3R (CT+RAMP3) expressed in tk-ts13 cells. It counts as cell-based.
A short description of data set [6]: Solubility of the compound in lactate at pH 3 by UPLC analysis. The data set is classed as physicochemical. Particulars: lactate buffer.
The nature of data set [7]: Solubility of the compound in lactate at pH 4 by UPLC analysis. It counts as physicochemical. Particulars: lactate buffer.
The nature of data set [8]: Solubility of the compound in lactate at pH 5 by UPLC analysis. The data set is classed as physicochemical. Particulars: lactate buffer.
Data set [9] can be described thus: Solubility of the compound in bis-tris propane at pH 6 by UPLC analysis. It counts as physicochemical. Particulars: bis-tris propane buffer.
Data set [10] is described as follows: Solubility of the compound in bis-tris propane at pH 6.5 by UPLC analysis. It counts as physicochemical. Particulars: bis-tris propane buffer.
Data set [11] can be described thus: Solubility of the compound in bis-tris propane at pH 7 by UPLC analysis. Particulars: bis-tris propane buffer. It counts as physicochemical.
Data set [12] can be described thus: Solubility of the compound in bis-tris propane at pH 7.5 by UPLC analysis. Particulars: bis-tris propane buffer. It counts as physicochemical.
Data set [13] in a line: Solubility of the compound in bis-tris propane at pH 8 by UPLC analysis. It counts as physicochemical. Particulars: bis-tris propane buffer.
Data set [14] addresses Insulin (Homo sapiens) (UniProt P01308). The data set can be described thus: Effect on insulin (unknown origin) amyloid fibril formation assessed as lag time in glycyl-glycine buffer at pH 4 measured after 45 hrs by thioflavin-T fluorescence assay.
Data set [15] has the same target. Put plainly: Effect on insulin (unknown origin) amyloid fibril formation assessed as peptide recovery in glycyl-glycine buffer at pH 4 measured after 45 hrs by thioflavin-T fluorescence assay relative to control. The arrangement: concentration or dose not given beside the values.
The subject of data set [16] is Rattus norvegicus. Put plainly: Reduction in food intake in Sprague-Dawley rat at 3 nmol/kg, sc administered as single dose measured upto 24 hrs relative to control. It counts as functional. The arrangement: scale not given: the % may be the effect or the level left. Particulars: time hrs <=24.
Data set [17] relates to Rattus norvegicus. The data set can be described thus: Reduction in food intake in Sprague-Dawley rat at 3 nmol/kg, sc administered as single dose measured after 24 to 48 hrs relative to control. The data set is classed as functional. The arrangement: scale not given: the % may be the effect or the level left. Particulars: time 24-48 hrs.

Chain of Insulin (Homo sapiens) (P01308 whole entry): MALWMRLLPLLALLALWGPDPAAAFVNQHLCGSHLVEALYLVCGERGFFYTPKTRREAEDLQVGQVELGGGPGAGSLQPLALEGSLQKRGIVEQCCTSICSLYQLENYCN

Consider `CC[C@H](C)[C@H](NC(=O)[C@@H]1CCCN1C(=O)CNC(=O)[C@H](Cc1ccccc1)NC(=O)[C@H](CC(N)=O)NC(=O)[C@H](C)NC(=O)[C@H](CO)NC(=O)[C@H](CO)NC(=O)[C@H](CCCNC(=N)N)NC(=O)[C@H](Cc1cnc[nH]1)NC(=O)[C@H](CC(C)C)NC(=O)[C@H](Cc1ccccc1)NC(=O)[C@H](CCC(=O)O)NC(=O)[C@H](C)NC(=O)[C@H](CC(C)C)NC(=O)[C@H](CCCNC(=N)N)NC(=O)[C@H](CCC(N)=O)NC(=O)[C@@H](NC(=O)[C@H](C)NC(=O)[C@@H]1CSSC[C@H](NC(=O)[C@H](CCCCN)NC(=O)[C@@H](CCCNC(=N)N)NC(=O)[C@@H](CCCNC(=N)N)NC(=O)COCCOCCNC(=O)COCCOCCNC(=O)CC[C@H](NC(=O)CCCCCCCCCCCCCCCCCCC(=O)O)C(=O)O)C(=O)N[C@@H](CC(N)=O)C(=O)N[C@@H]([C@@H](C)O)C(=O)N[C@@H](C)C(=O)N[C@@H]([C@@H](C)O)C(=O)N1)[C@@H](C)O)C(=O)N[C@@H](CC(C)C)C(=O)N1CCC[C@H]1C(=O)N1CCC[C@H]1C(=O)N[C@H](C(=O)N[C@@H](CC(N)=O)C(=O)N[C@H](C(=O)NCC(=O)N[C@@H](CO)C(=O)N[C@@H](CO)C(=O)N[C@H](C(=O)N[C@@H](Cc1ccc(O)cc1)C(N)=O)[C@@H](C)O)C(C)C)[C@@H](C)O` ({C20 diacid-γGlu-AEEA-AEEA}-[dR][dR]KCNTATCATQRLAEFLHRSSANFGPILPPTNVGSSTY-NH2; disulfide 4-9), for which the 50% effective concentration (EC50) in data set [1] was 0.14 nM; in data set [2], 1.08 nM; in data set [3], 0.233 nM; in data set [4] it was 4.48 nM. Moreover, the Ratio EC50 in the data set filed under Homo sapiens was found to be 8; in the data set listed under Rattus norvegicus [5], 19. Besides, the solubility in [6], in data set [7], in data set [8], in data set [9], in data set [10] and in data set [11] was 200 µM (≈ 1000 µg/mL) each time. For the same compound, the solubility in data set [12] and in data set [13] was 200 µM (≈ 1000 µg/mL) in each case. In addition, at Insulin (Homo sapiens) [14], the TIME stood at 45 h. The Activity at Insulin (Homo sapiens) [15] was 94%; in the data set with Rattus norvegicus [16] it was 16%; in the data set on Rattus norvegicus [17], 0%.

As for `CC[C@H](C)[C@H](NC(=O)[C@@H]1CCCN1C(=O)CNC(=O)[C@H](Cc1ccccc1)NC(=O)[C@H](CC(N)=O)NC(=O)[C@H](CC(N)=O)NC(=O)[C@H](CO)NC(=O)[C@H](CO)NC(=O)[C@H](Cc1cnc[nH]1)NC(=O)[C@H](Cc1cnc[nH]1)NC(=O)[C@H](CC(C)C)NC(=O)[C@H](Cc1ccccc1)NC(=O)[C@H](CCC(=O)O)NC(=O)[C@H](C)NC(=O)[C@H](CC(C)C)NC(=O)[C@H](CCCNC(=N)N)NC(=O)[C@H](CCC(N)=O)NC(=O)[C@@H](NC(=O)[C@H](C)NC(=O)[C@@H]1CSSC[C@H](NC(=O)[C@H](CCC(=O)O)NC(=O)CC[C@H](NC(=O)CCCCCCCCCCCCCCCCCCC(=O)O)C(=O)O)C(=O)N[C@@H](CC(N)=O)C(=O)N[C@@H]([C@@H](C)O)C(=O)N[C@@H](C)C(=O)N[C@@H]([C@@H](C)O)C(=O)N1)[C@@H](C)O)C(=O)N[C@@H](CC(C)C)C(=O)N1CCC[C@H]1C(=O)N1CCC[C@H]1C(=O)N[C@H](C(=O)N[C@@H](CC(N)=O)C(=O)N[C@H](C(=O)NCC(=O)N[C@@H](CO)C(=O)N[C@@H](CC(N)=O)C(=O)N[C@H](C(=O)N[C@@H](Cc1ccc(O)cc1)C(N)=O)[C@@H](C)O)C(C)C)[C@@H](C)O` ({C20 diacid-γGlu}-ECNTATCATQRLAEFLHHSSNNFGPILPPTNVGSNTY-NH2; disulfide 2-7), the values for the EC50 in [1] and in [2] were 0.377 nM and 0.657 nM, respectively. In addition, in the data set listed under Homo sapiens, the Ratio EC50 came to 2. Also, the solubility in data set [6], in data set [7], in [9], in [10], in [11] and in data set [12] was 200 µM (≈ 891 µg/mL) each time. Besides, the solubility in [13] was 200 µM (≈ 891 µg/mL). Moreover, the TIME on Insulin (Homo sapiens) [14] is 3 h. The Activity at Insulin (Homo sapiens) [15] stood at 0%; in the data set with Rattus norvegicus [16], 15%; in the data set on Rattus norvegicus [17], 5%.

Turning to `CC(C)C[C@H](NC(=O)[C@H](CCCNC(=N)N)NC(=O)[C@H](CCC(N)=O)NC(=O)[C@@H](NC(=O)[C@H](C)NC(=O)[C@@H]1CSSC[C@H](NC(=O)[C@H](Cc2cnc[nH]2)NC(=O)CC[C@H](NC(=O)CCCCCCCCCCCCCCCCCCC(=O)O)C(=O)O)C(=O)N[C@@H](CC(N)=O)C(=O)N[C@@H]([C@@H](C)O)C(=O)N[C@@H](C)C(=O)N[C@@H]([C@@H](C)O)C(=O)N1)[C@@H](C)O)C(=O)N[C@@H](C)C(=O)N[C@@H](CCC(=O)O)C(=O)N[C@@H](Cc1ccccc1)C(=O)N[C@@H](CC(C)C)C(=O)N[C@@H](Cc1cnc[nH]1)C(=O)N[C@@H](CCCNC(=N)N)C(=O)N[C@@H](CO)C(=O)N[C@@H](CO)C(=O)N[C@@H](CC(N)=O)C(=O)N[C@@H](CC(N)=O)C(=O)N[C@@H](Cc1ccccc1)C(=O)NCC(=O)N[C@@H](C)C(=O)N1CCC[C@H]1C(=O)N[C@@H](CC(C)C)C(=O)N[C@@H](CO)C(=O)N[C@@H](CO)C(=O)N[C@H](C(=O)N[C@@H](CC(N)=O)C(=O)N[C@H](C(=O)NCC(=O)N[C@@H](CO)C(=O)N[C@@H](CC(N)=O)C(=O)N[C@H](C(=O)N[C@@H](Cc1ccc(O)cc1)C(N)=O)[C@@H](C)O)C(C)C)[C@@H](C)O` ({C20 diacid-γGlu}-HCNTATCATQRLAEFLHRSSNNFGAPLSSTNVGSNTY-NH2; disulfide 2-7), the half-maximal effective concentration (EC50) in data set [1] amounted to 0.107 nM; in data set [2], 0.218 nM. Besides, the Ratio EC50 in the data set filed under Homo sapiens came to 2. In addition, the values for the solubility in [6], in [10] and in data set [11] were 200 µM (≈ 884 µg/mL), 4 µM (≈ 17.7 µg/mL) and 7 µM (≈ 31 µg/mL), respectively. For the same compound, the TIME at Insulin (Homo sapiens) [14] was 14 h. Also, on Insulin (Homo sapiens) [15], the Activity is 0%.

As for `CC[C@H](C)[C@H](NC(=O)[C@@H]1CCCN1C(=O)CNC(=O)[C@H](Cc1ccccc1)NC(=O)[C@H](CC(N)=O)NC(=O)[C@H](CC(N)=O)NC(=O)[C@H](CO)NC(=O)[C@H](CO)NC(=O)[C@H](Cc1c[nH]cn1)NC(=O)[C@H](CCCNC(=N)N)NC(=O)[C@H](CC(C)C)NC(=O)[C@H](Cc1ccccc1)NC(=O)[C@H](CCC(=O)O)NC(=O)[C@H](C)NC(=O)[C@H](CC(C)C)NC(=O)[C@H](CCCNC(=N)N)NC(=O)[C@H](CCC(N)=O)NC(=O)[C@@H](NC(=O)[C@H](C)NC(=O)[C@@H]1CSSC[C@H](NC(=O)[C@H](CCCCN)NC(=O)CC[C@H](NC(=O)CCCCCCCCCCCCCCCCCCC(=O)O)C(=O)O)C(=O)N[C@@H](CC(N)=O)C(=O)N[C@@H]([C@@H](C)O)C(=O)N[C@@H](C)C(=O)N[C@@H]([C@@H](C)O)C(=O)N1)[C@@H](C)O)C(=O)N[C@@H](CC(C)C)C(=O)N1CCC[C@H]1C(=O)N1CCC[C@H]1C(=O)N[C@H](C(=O)N[C@@H](CC(N)=O)C(=O)N[C@H](C(=O)NCC(=O)N[C@@H](CO)C(=O)N[C@@H](Cc1cnc[nH]1)C(=O)N[C@H](C(=O)N[C@@H](Cc1ccc(O)cc1)C(N)=O)[C@@H](C)O)C(C)C)[C@@H](C)O` ({C20 diacid-γGlu}-KCNTATCATQRLAEFLRHSSNNFGPILPPTNVGSHTY-NH2; disulfide 2-7), the EC50 worked out at 0.111 nM in data set [1], 0.379 nM in data set [2], 0.49 nM in data set [3] and 2.54 nM in data set [4]. The Ratio EC50 in the data set filed under Homo sapiens came to 3; in the data set listed under Rattus norvegicus [5], 5. Besides, the solubility in [6], in data set [7], in data set [8], in data set [9], in [10] and in data set [11] was 200 µM (≈ 900 µg/mL) throughout. This compound had a solubility in [13] of 80 µM (≈ 360 µg/mL). Also, at Insulin (Homo sapiens) [14], the TIME came to 45 h. For the same compound, the Activity on Insulin (Homo sapiens) [15] was found to be 100%; in the data set on Rattus norvegicus [16], 17%; in the data set with Rattus norvegicus [17] it was 0%.

The values above are taken from ChEMBL document CHEMBL4842340, “Development of Cagrilintide, a Long-Acting Amylin Analogue” (J Med Chem, 2021).
